The results in this text go back to PubChem BioAssay AID330 (DTP/NCI, 2004).

The assay has as its system P388 leukemia ip, CD2F1 mice, survival T/C. In words: NCI In Vivo Anticancer Drug Screen. Data for tumor model P388 Leukemia (intraperitoneal) in CD2F1 (CDF1) mice. Conditions: endpoint: median survival time, higher = longer survival. In outline: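 Mice carrying the transplanted tumor received test compound or vehicle. Survival was recorded in each group, and the value is the treated-group measurement divided by that of the vehicle-treated control group.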

The mark [1] stands for this setting: dose: 25.0 mg/kg/injection, schedule: Q01DX009 (ip), vehicle: saline.
The mark [2] stands for this setting: dose: 50.0 mg/kg/injection, schedule: Q01DX009 (ip), vehicle: saline with Tween-80.
Where [3] appears, read: dose: 100.0 mg/kg/injection, schedule: Q01DX009 (ip), vehicle: saline with Tween-80.
[4] abbreviates: dose: 50.0 mg/kg/injection, schedule: Q01DX005 (ip), vehicle: saline with Tween-80.
[5] abbreviates: dose: 200.0 mg/kg/injection, schedule: Q01DX005 (ip), vehicle: saline with Tween-80.

Several values for one entry are separate records, joined by “and”; a condition that tells them apart may be missing. Equal values may be shown once. Inconclusive results and toxic doses are left out.

For `CN(C)c1ccc(/C=C/c2ccnc3c2ccc2ccccc23)cc1`, the T/C reads like this: (dose: 37.5 mg/kg/injection, schedule: Q04DX003 (ip), vehicle: Klucel (hydroxypropylcellulose) (HPC)) 108 % of control; (dose: 50.0 mg/kg/injection, schedule: Q01DX001 (ip), vehicle: saline with Tween-80) 106 % of control; (dose: 75.0 mg/kg/injection, schedule: Q04DX003 (ip), vehicle: Klucel (hydroxypropylcellulose) (HPC)) 89 % of control; (dose: 100.0 mg/kg/injection, schedule: Q01DX001 (ip), vehicle: saline with Tween-80) 93 % of control; (dose: 150.0 mg/kg/injection, schedule: Q04DX003 (ip), vehicle: Klucel (hydroxypropylcellulose) (HPC)) 103 % of control; (dose: 200.0 mg/kg/injection, schedule: Q01DX001 (ip), vehicle: saline with Tween-80) 91 % of control. Moreover, the T/C was 96 % of control (dose: 300.0 mg/kg/injection, schedule: Q04DX003 (ip), vehicle: Klucel (hydroxypropylcellulose) (HPC)) and 91 % of control (dose: 400.0 mg/kg/injection, schedule: Q01DX001 (ip), vehicle: saline with Tween-80).

On to `COc1cc(CCNC(C)=O)cc(OC)c1OC`, for which the T/C (dose: 25.0 mg/kg/injection, schedule: Q01DX005 (ip), vehicle: water) was 100 % of control; the T/C (dose: 50.0 mg/kg/injection, schedule: Q01DX005 (ip), vehicle: water) was 104 % of control; the T/C (dose: 100.0 mg/kg/injection, schedule: Q01DX005 (ip), vehicle: water) was 100 % of control; the T/C (dose: 200.0 mg/kg/injection, schedule: Q01DX005 (ip), vehicle: water) was 91 % of control.

For the compound `C=CC1CC[N-]CC1.[Cl][Cu][Cl]`, the T/C is, setting by setting: (dose: 7.5 mg/kg/injection, schedule: Q01DX005 (ip), vehicle: saline) 98 % of control; (dose: 15.0 mg/kg/injection, schedule: Q01DX005 (ip), vehicle: saline) 100 % of control.

For `Cc1ccc2c(c1)nc(N)n2N`, the T/C by setting is: (dose: 100.0 mg/kg/injection, schedule: Q01DX001 (ip), vehicle: Klucel (hydroxypropylcellulose) (HPC)) 100 % of control; (dose: 200.0 mg/kg/injection, schedule: Q01DX001 (ip), vehicle: Klucel (hydroxypropylcellulose) (HPC)) 98 % of control; (dose: 400.0 mg/kg/injection, schedule: Q01DX001 (ip), vehicle: Klucel (hydroxypropylcellulose) (HPC)) 89 % of control.

Consider `CN(Cc1cnc2nc(N)nc(N)c2c1)c1ccc(C(=O)NC(CCC(=O)O)C(=O)O)cc1` (stereo not given), for which the T/C runs as follows: (dose: 0.25 mg/kg/injection, schedule: Q01DX005 (ip), vehicle: other) 123 % of control; (dose: 1.0 mg/kg/injection, schedule: Q01DX005 (ip), vehicle: other) 154 % of control; (dose: 2.0 mg/kg/injection, schedule: Q01DX005 (ip), vehicle: other) 150 % of control and 170 % of control; (dose: 4.0 mg/kg/injection, schedule: Q01DX005 (ip), vehicle: other) 166 % of control and 186 % of control and 197 % of control; (dose: 6.0 mg/kg/injection, schedule: Q01DX005 (ip), vehicle: other) 197 % of control.

`CC(=O)NCCSSCCCCS(=O)O`: the T/C (dose: 50.0 mg/kg/injection, schedule: Q01DX005 (ip), vehicle: saline) is 106 % of control and 115 % of control; the T/C (dose: 100.0 mg/kg/injection, schedule: Q01DX005 (ip), vehicle: saline) is 118 % of control and 121 % of control; the T/C (dose: 200.0 mg/kg/injection, schedule: Q01DX005 (ip), vehicle: saline) was 124 % of control.

Regarding `CCN(CC)c1ccc(NC(=S)NN)cc1`, the T/C was 100 % of control (dose: 60.0 mg/kg/injection, schedule: Q01DX005 (ip), vehicle: Klucel (hydroxypropylcellulose) (HPC)) and 97 % of control (dose: 120.0 mg/kg/injection, schedule: Q01DX005 (ip), vehicle: Klucel (hydroxypropylcellulose) (HPC)).

Consider `CC(C)=CCc1cc(O)c(C)cc1O`, for which the T/C is 99 % of control (dose: 12.5 mg/kg/injection, schedule: Q01DX009 (ip), vehicle: distilled water + Tween-80 + alcohol) and 91 % of control (dose: 25.0 mg/kg/injection, schedule: Q01DX009 (ip), vehicle: distilled water + Tween-80 + alcohol).

In the case of `CC(=O)Nc1nc(NC(C)=O)c(N=O)c(NC(C)=O)n1`, the T/C (dose: 25.0 mg/kg/injection, schedule: Q01DX009 (ip), vehicle: saline with Tween-80) was 103 % of control; the T/C under setting [1] was 108 % of control; the T/C under setting [2] was 103 % of control; the T/C (dose: 50.0 mg/kg/injection, schedule: Q01DX009 (ip), vehicle: saline) is 108 % of control and 120 % of control; the T/C under setting [3] was 94 % of control; the T/C (dose: 100.0 mg/kg/injection, schedule: Q01DX009 (ip), vehicle: saline) was 112 % of control.

On to `CN(C)/C=N/c1c(CO)c(-c2ccccc2)nn1-c1ccccc1`, for which the T/C is 104 % of control under setting [2]; 100 % of control under setting [3]; 104 % of control (dose: 200.0 mg/kg/injection, schedule: Q01DX009 (ip), vehicle: saline with Tween-80); 105 % of control (dose: 400.0 mg/kg/injection, schedule: Q01DX009 (ip), vehicle: saline with Tween-80).

Turning to `O=C1c2ccccc2-c2c1c1ccccc1c(=O)n2-c1ccccc1`, the T/C was 102 % of control under setting [4]; 107 % of control (dose: 100.0 mg/kg/injection, schedule: Q01DX005 (ip), vehicle: saline with Tween-80); 100 % of control under setting [5].

`COc1c2c(cc3ccc(=O)oc13)C=CC(C)(C)O2`: the T/C (dose: 9.75 mg/kg/injection, schedule: Q01DX005 (ip), vehicle: Klucel (hydroxypropylcellulose) (HPC)) was 100 % of control; the T/C (dose: 19.5 mg/kg/injection, schedule: Q01DX005 (ip), vehicle: Klucel (hydroxypropylcellulose) (HPC)) was 89 % of control; the T/C (dose: 39.0 mg/kg/injection, schedule: Q01DX005 (ip), vehicle: Klucel (hydroxypropylcellulose) (HPC)) was 100 % of control; the T/C (dose: 78.0 mg/kg/injection, schedule: Q01DX005 (ip), vehicle: Klucel (hydroxypropylcellulose) (HPC)) is 89 % of control.

`COC1=CC[C@H]2[C@H]3Cc4ccc(OC)c5c4[C@@]2(CCN3CC2CC2)C1O5` (stereo not given in full): the T/C is, setting by setting: (dose: 100.0 mg/kg/injection, schedule: Q04DX002 (ip), vehicle: Klucel (hydroxypropylcellulose) (HPC)) 97 % of control; (dose: 200.0 mg/kg/injection, schedule: Q04DX002 (ip), vehicle: Klucel (hydroxypropylcellulose) (HPC)) 102 % of control.

For the compound `O=[N+]([O-])[O][Sn]([O][Sn]([O][N+](=O)[O-])([c]1ccccc1)[c]1ccccc1)([c]1ccccc1)[c]1ccccc1`, the T/C is, setting by setting: (dose: 1.56 mg/kg/injection, schedule: Q01DX005 (ip), vehicle: Klucel (hydroxypropylcellulose) (HPC)) 102 % of control; (dose: 3.12 mg/kg/injection, schedule: Q01DX005 (ip), vehicle: Klucel (hydroxypropylcellulose) (HPC)) 99 % of control; (dose: 6.25 mg/kg/injection, schedule: Q01DX005 (ip), vehicle: Klucel (hydroxypropylcellulose) (HPC)) 97 % of control; (dose: 12.5 mg/kg/injection, schedule: Q01DX005 (ip), vehicle: Klucel (hydroxypropylcellulose) (HPC)) 122 % of control; (dose: 12.5 mg/kg/injection, schedule: Q01DX005 (ip), vehicle: saline) 96 % of control.

With `Cc1cccc2c1Oc1ccccc1C2NC(=O)c1ccccc1` (stereo not given), the T/C runs as follows: (dose: 12.5 mg/kg/injection, schedule: Q01DX005 (ip), vehicle: saline with Tween-80) 86 % of control; (dose: 25.0 mg/kg/injection, schedule: Q01DX005 (ip), vehicle: saline with Tween-80) 89 % of control; under setting [4], 86 % of control and 88 % of control; under setting [5], 87 % of control.

For the compound `COc1ccc(N=C([Se])CCC(C)C)cc1`, the T/C was 111 % of control (dose: 6.25 mg/kg/injection, schedule: Q01DX009 (ip), vehicle: Klucel (hydroxypropylcellulose) (HPC)); 106 % of control (dose: 12.5 mg/kg/injection, schedule: Q01DX009 (ip), vehicle: Klucel (hydroxypropylcellulose) (HPC)); 108 % of control (dose: 25.0 mg/kg/injection, schedule: Q01DX009 (ip), vehicle: Klucel (hydroxypropylcellulose) (HPC)).

Take `[Cu+2].[NH-]C(Cc1cnc[nH]1)C(=O)O.[NH-]CC(=O)O` (stereo not given): the T/C by setting is: (dose: 6.25 mg/kg/injection, schedule: Q01DX009 (ip), vehicle: saline) 97 % of control; (dose: 12.5 mg/kg/injection, schedule: Q01DX009 (ip), vehicle: saline) 93 % of control and 95 % of control; under setting [1], 97 % of control.

With `NC1C[S][Sn][O]C1=O` (stereo not given), the T/C was 111 % of control (dose: 100.0 mg/kg/injection, schedule: Q04DX003 (ip), vehicle: saline with Tween-80) and 109 % of control (dose: 200.0 mg/kg/injection, schedule: Q04DX003 (ip), vehicle: saline with Tween-80).
